Assay results as given in patent US10975093B2, “Fused 1,4-diazepines as BET protein degraders” (THE REGENTS OF THE UNIVERSITY OF MICHIGAN, priority 2016, dated 2021).

Key:
MDA-MB-231 = experiment: Cell growth inhibition, CellTiter-Glo Luminescent Cell Viability Assay, MDA-MB-231; assay type: cell-based; details: Homo sapiens, MDA-MB-231 cells, 4 days incubation
Experimental: (§1) Cell growth inhibitory activity of representative Compounds of the Disclosure was determined in various cell lines using CellTiter-Glo® Luminescent Cell Viability Assay. Cells were seeded in 384-well white opaque cell culture plates at a density of 2,000 cells/well with serially diluted compounds and incubated at 37° C. in an atmosphere of 95% air and 5% CO2 for 4 days. Cell viability was determined using the CellTiter-Glo® Luminescent Cell Viability Assay Kit (Promega, Madison, Wis.) according to the manufacture's instruction. Briefly, a volume of CellTiter-Glo® Reagent equal to the volume of cell culture medium was added to each well, and then the plates were incubated at room temperature for 10-20 minutes. The luminescent signal was measured using a Tecan Infinite M1000 multimode microplate reader (Tecan, Morrisville, N.C.). The half maximal inhibitory concentration (IC50) was calculated using the GraphPad Prism 5 software (GraphPad Software, La Jolla, Calif.).

MOLM-13 = experiment: Cell growth inhibition, CellTiter-Glo Luminescent Cell Viability Assay, MOLM-13; assay type: cell-based; details: Homo sapiens, MOLM-13 cells, 4 days incubation
Experimental: as §1

Cc1c(C#Cc2cnn(CCCn3cnc(COc4cccc5c4CN(C4CCC(=O)NC4=O)C5=O)c3)c2)sc2c1C(c1ccc(Cl)cc1)=NCc1nnc(C)n1-2 (stereo not shown) [compound 156, 3-(4-((1-(3-(4-((4-(4-chlorophenyl)-3,9-dimethyl-6H-thieno[3,2-f][1,2,4]triazolo[4,3-a][1,4]diazepin-2-yl)ethynyl)-1H-pyrazol-1-yl)propyl)-1H-imidazol-4-yl)methoxy)-1-oxoisoindolin-2-yl)piperidine-2,6-dione]
IC50 (MDA-MB-231; MDA-MB-231, 96 h): 17.6 nM
IC50 (MOLM-13; MOLM-13, 96 h): 12.8 nM

Cc1c(C#Cc2cnn(CCOCCOCCOCC#Cc3cccc4c3CN(C3CCC(=O)NC3=O)C4=O)c2)sc2c1C(c1ccc(Cl)cc1)=N[C@@H](C)c1nnc(C)n1-2 (stereo partly shown) [compound 196]
IC50 (MDA-MB-231; MDA-MB-231, 96 h): 0.4 nM
IC50 (MOLM-13; MOLM-13, 96 h): 0.2 nM

Cc1c(C#Cc2ccc(OCCC#Cc3cccc4c3CN(C3CCC(=O)NC3=O)C4=O)cn2)sc2c1C(c1ccc(Cl)cc1)=N[C@@H](C)c1nnc(C)n1-2 (stereo partly drawn) [Cpd. No. 16, 3-(4-(4-((6-(((S)-4-(4-chlorophenyl)-3,6,9-trimethyl-6H-thieno[3,2-f][1,2,4]triazolo[4,3-a][1,4]diazepin-2-yl)ethynyl)pyridin-3-yl)oxy)but-1-yn-1-yl)-1-oxoisoindolin-2-yl)piperidine-2,6-dione]
IC50 (MDA-MB-231; MDA-MB-231, 96 h): 1.7 nM
IC50 (MOLM-13; MOLM-13, 96 h): 1.1 nM

Cc1c(C#Cc2cnn(CCCC#Cc3ccc4c(c3)CN(C3CCC(=O)NC3=O)C4=O)c2)sc2c1C(c1ccc(Cl)cc1)=N[C@@H](C)c1nnc(C)n1-2 (stereo partly drawn) [compound 179, 3-(5-(5-(4-(((S)-4-(4-chlorophenyl)-3,6,9-trimethyl-6H-thieno[3,2-f][1,2,4]triazolo[4,3-a][1,4]diazepin-2-yl)ethynyl)-1H-pyrazol-1-yl)pent-1-yn-1-yl)-1-oxoisoindolin-2-yl)piperidine-2,6-dione]
IC50 (MDA-MB-231; MDA-MB-231, 96 h): 0.2 nM
IC50 (MOLM-13; MOLM-13, 96 h): 0.9 nM

Cc1c(C#Cc2cnn(CCCCNc3ccc4c(c3)CN(C3CCC(=O)NC3=O)C4=O)c2)sc2c1C(c1ccc(Cl)cc1)=N[C@@H](C)c1nnc(C)n1-2 (stereo partly drawn) [compound 184, 3-(5-((4-(4-(((S)-4-(4-chlorophenyl)-3,6,9-trimethyl-6H-thieno[3,2-f][1,2,4]triazolo[4,3-a][1,4]diazepin-2-yl)ethynyl)-1H-pyrazol-1-yl)butyl)amino)-1-oxoisoindolin-2-yl)piperidine-2,6-dione]
IC50 (MDA-MB-231; MDA-MB-231, 96 h): 0.1 nM
IC50 (MOLM-13; MOLM-13, 96 h): 0.5 nM

Cc1c(C#Cc2cnn(CCCCCc3ccc4c(c3)CN(C3CCC(=O)NC3=O)C4=O)c2)sc2c1C(c1ccc(Cl)cc1)=N[C@@H](C)c1nnc(C)n1-2 (stereo partly drawn) [compound 180, 3-(5-(5-(4-(((S)-4-(4-chlorophenyl)-3,6,9-trimethyl-6H-thieno[3,2-f][1,2,4]triazolo[4,3-a][1,4]diazepin-2-yl)ethynyl)-1H-pyrazol-1-yl)pentyl)-1-oxoisoindolin-2-yl)piperidine-2,6-dione]
IC50 (MDA-MB-231; MDA-MB-231, 96 h): 0.04 nM
IC50 (MOLM-13; MOLM-13, 96 h): 0.2 nM

Cc1c(C#Cc2cnn(CCCC#Cc3ccc4c(c3)C(=O)N(C3CCC(=O)NC3=O)C4=O)c2)sc2c1C(c1ccc(Cl)cc1)=NCc1nnc(C)n1-2 (stereo not shown) [compound 157, 5-(5-(4-((4-(4-chlorophenyl)-3,9-dimethyl-6H-thieno[3,2-f][1,2,4]triazolo[4,3-a][1,4]diazepin-2-yl)ethynyl)-1H-pyrazolo-1-yl)pent-1-yn-1-yl)-2-(2,6-dioxopiperidin-3-yl)isoindoline-1,3-dione]
IC50 (MDA-MB-231; MDA-MB-231, 96 h): 52.7 nM
IC50 (MOLM-13; MOLM-13, 96 h): 18.6 nM

Cc1c(C#Cc2cnn(CCn3cnc(COc4cccc5c4CN(C4CCC(=O)NC4=O)C5=O)c3)c2)sc2c1C(c1ccc(Cl)cc1)=NCc1nnc(C)n1-2 (stereo not shown) [compound 154, 3-(4-((1-(2-(4-((4-(4-chlorophenyl)-3,9-dimethyl-6H-thieno[3,2-f][1,2,4]triazolo[4,3-a][1,4]diazepin-2-yl)ethynyl)-1H-pyrazol-1-yl)ethyl)-1H-imidazol-4-yl)methoxy)-1-oxoisoindolin-2-yl)piperidine-2,6-dione]
IC50 (MDA-MB-231; MDA-MB-231, 96 h): > 100 nM
IC50 (MOLM-13; MOLM-13, 96 h): > 100 nM

Cc1c(C#Cc2cnn(CCCN3CCC(Nc4cccc5c4CN(C4CCC(=O)NC4=O)C5=O)CC3)c2)sc2c1C(c1ccc(Cl)cc1)=N[C@@H](CC(=O)N1CCN(C)CC1)c1nnc(C)n1-2 (stereo partly drawn) [compound 192, 3-(4-((1-(3-(4-(((S)-4-(4-chlorophenyl)-3,9-dimethyl-6-(2-(4-methylpiperazin-1-yl)-2-oxoethyl)-6H-thieno[3,2-f][1,2,4]triazolo[4,3-a][1,4]diazepin-2-yl)ethynyl)-1H-pyrazol-1-yl)propyl)piperidin-4-yl)amino)-1-oxoisoindolin-2-yl)piperidine-2,6-dione]
IC50 (MDA-MB-231; MDA-MB-231, 96 h): 0.08 nM
IC50 (MOLM-13; MOLM-13, 96 h): 0.07 nM

Cc1c(C#Cc2cnn(CCCN3CCN(c4cccc5c4C(=O)N(C4CCC(=O)NC4=O)C5=O)CC3)c2)sc2c1C(c1ccc(Cl)cc1)=N[C@@H](C)c1nnc(C)n1-2 (stereo partly drawn) [compound 178, 4-(4-(3-(4-(((S)-4-(4-chlorophenyl)-3,6,9-trimethyl-6H-thieno[3,2-f][1,2,4]triazolo[4,3-a][1,4]diazepin-2-yl)ethynyl)-1H-pyrazol-1-yl)propyl)piperazin-1-yl)-2-(2,6-dioxopiperidin-3-yl)isoindoline-1,3-dione]
IC50 (MDA-MB-231; MDA-MB-231, 96 h): 0.6 nM
IC50 (MOLM-13; MOLM-13, 96 h): 1 nM

Cc1c(C#Cc2ccc(OCCC#Cc3cccc4c3CN(C3CCC(=O)NC3=O)C4=O)cn2)sc2c1C(c1ccc(Cl)cc1)=NCc1nnc(C)n1-2 (stereo not shown) [Cpd. No. 15, 3-(4-(4-((6-((4-(4-chlorophenyl)-3,9-dimethyl-6H-thieno[3,2-f][1,2,4]triazolo[4,3-a][1,4]diazepin-2-yl)ethynyl)pyridin-3-yl)oxy)but-1-yn-1-yl)-1-oxoisoindolin-2-yl)piperidine-2,6-dione]
IC50 (MDA-MB-231; 96 h): 39.1 nM
IC50 (MOLM-13; 96 h): 82.6 nM

Cc1c(C#Cc2ccc(CCCC#Cc3cccc4c3CN(C3CCC(=O)NC3=O)C4=O)nc2)sc2c1C(c1ccc(Cl)cc1)=N[C@@H](C)c1nnc(C)n1-2 (stereo partly drawn) [compound 166, 3-(4-(5-(5-(((S)-4-(4-chlorophenyl)-3,6,9-trimethyl-6H-thieno[3,2-f][1,2,4]triazolo[4,3-a][1,4]diazepin-2-yl)ethynyl)pyridin-2-yl)pent-1-yn-1-yl)-1-oxoisoindolin-2-yl)piperidine-2,6-dione]
IC50 (MDA-MB-231; MDA-MB-231, 96 h): 0.6 nM
IC50 (MOLM-13; MOLM-13, 96 h): 0.9 nM

Cc1c(C#Cc2cnn(CCCC#Cc3ccc4c(c3)C(=O)N(C3CCC(=O)NC3=O)C4=O)c2)sc2c1C(c1ccc(Cl)cc1)=N[C@@H](C)c1nnc(C)n1-2 (stereo partly drawn) [compound 158, 5-(5-(4-(((S)-4-(4-chlorophenyl)-3,6,9-trimethyl-6H-thieno[3,2-f][1,2,4]triazolo[4,3-a][1,4]diazepin-2-yl)ethynyl)-1H-pyrazolo-1-yl)pent-1-yn-1-yl)-2-(2,6-dioxopiperidin-3-yl)isoindoline-1,3-dione]
IC50 (MDA-MB-231; MDA-MB-231, 96 h): 7.2 nM
IC50 (MOLM-13; MOLM-13, 96 h): 2.5 nM

Cc1c(C#Cc2ccc(CCCCNc3cccc4c3CN(C3CCC(=O)NC3=O)C4=O)nc2)sc2c1C(c1ccc(Cl)cc1)=NCc1nnc(C)n1-2 (stereo not shown) [Cpd. No. 17, 3-(4-((4-(5-((4-(4-chlorophenyl)-3,9-dimethyl-6H-thieno[3,2-f][1,2,4]triazolo[4,3-a][1,4]diazepin-2-yl)ethynyl)pyridin-2-yl)butyl)amino)-1-oxoisoindolin-2-yl)piperidine-2,6-dione]
IC50 (MDA-MB-231; MDA-MB-231, 96 h): 11.1 nM
IC50 (MOLM-13; MOLM-13, 96 h): 10.3 nM
